From patent US20230146455A1, “TREATMENT OF INFLAMMATORY DISEASES WITH PEPTIDES AND PHARMACEUTICAL COMPOSITIONS” (Yuyu Pharma, Inc., priority 2020, published 2023)
Several values for one entry are separate records, joined by “and”; a condition that tells them apart may be missing. Identical values can stand only once. Where a SMILES comes first, the peptide text is derived from it. [ ]: non-standard residue; d: D form. Hyp = O=C(O)[C@@H]1C[C@@H](O)CN1

Tested on: IL-1 alpha
Assay: Example 9 Luminex, LPS hPBMCs: IL-1 alpha
Assay type: cell-based, human
Details: for Concentration / conc/live cell: IL-1 alpha, replicates and Mean
Method: Treatment Human PBMCs were pretreated with YY-101, YDE-011 and YDE-043 or reference compound; Xiidra® at various concentration (ranging from 1 nM to 100 uM) for 2 h before stimulation. An equal volume of 0.5% DMSO was used as a vehicle control. Then, the cells were treated with LPS at 5 ug/ml. The supernatants from treated cells were harvested at 24 h and placed in a 96 well for Luminex cytokine & chemokine profiling using a Luminex 200 multiplex assay (Luminex; R&D system, USA).
The main study arm with triplicate wells per group in a 24-well plate: • 1. Blank • 2. PBMC: 0.5% DMSO • 3. PBMC+LPS (5 ug/ml) • 4. PBMC+YY-101 100 uM • 5. PBMC+YY-101 10 uM • 6. PBMC+YY-101 1 uM • 7. PBMC+YY-101 0.1 uM • 8. PBMC+YY-101 0.01 uM • 9. PBMC+LPS (5 ug/ml)+Xiidra®100 uM • 10. PBMC+LPS (5 ug/ml)+Xiidra® 10 uM • 11. PBMC+LPS (5 ug/ml)+Xiidra® 1 uM • 12. PBMC+LPS (5 ug/ml)+Xiidra®0.1 uM • 13. PBMC+LPS (5 ug/ml)+Xiidra®0.01 uM • 14. PBMC+LPS (5 ug/ml)+Xiidra®0.001 uM • 15. PBMC+LPS (5 ug/ml)+YY-101 100 uM • 16. PBMC+LPS (5 ug/ml)+YY-101 10 uM • 17. PBMC+LPS (5 ug/ml)+YY-101 1 uM • 18. PBMC+LPS (5 ug/ml)+YY-101 0.1 uM • 19. PBMC+LPS (5 ug/ml)+YY-101 0.01 uM • 20. PBMC+LPS (5 ug/ml)+YY-101 0.001 uM • 21. PBMC+LPS (5 ug/ml)+YDE-011 100 uM • 22. PBMC+LPS (5 ug/ml)+YDE-011 10 uM • 23. PBMC+LPS (5 ug/ml)+YDE-011 1 uM • 24. PBMC+LPS (5 ug/ml)+YDE-011 0.1 uM • 25. PBMC+LPS (5 ug/ml)+YDE-011 0.01 uM • 26. PBMC+LPS (5 ug/ml)+YDE-011 0.001 uM • 27. PBMC+LPS (5 ug/ml)+YDE-043 100 uM • 28. PBMC+LPS (5 ug/ml)+YDE-043 10 uM • 29. PBMC+LPS (5 ug/ml)+YDE-043 1 uM • 30. PBMC+LPS (5 ug/ml)+YDE-043 0.1 uM • 31. PBMC+LPS (5 ug/ml)+YDE-043 0.01 uM • 32. PBMC+LPS (5 ug/ml)+YDE-043 0.001 uM
Multiplex assay was used to measure 30 cytokines and chemokines. The 1:2, 1:10 and 1:200 diluted cell supernatant and serial dilution of the standard were dispensed into a 96 well plate at 50 ul/well. Then, the pre-mixed cocktail of antibody-coated magnetic beads was dispensed at 50 ul/well and incubated at room temperature for 2 h in a horizontal orbital microplate shaker at 800±500 rpm. The beads were washed using a magnetic device to prevent loss. The biotin-antibody was dispensed in 50 ul of each well and incubated at room temperature for 1 h in a shaker at 800±500 rpm. After washing, streptavidin-PE was added at 50 ul/well and incubated at room temperature for 30 min in a shaker under the same conditions. Finally, after washing, wash buffer (100 ul/well) was added to the plate and incubated in a shaker for 2 min. The Luminex™ 200 setting were set according to the manufacturer's protocol. The data was calculated with a standard five-parameter logistic nonlinear regression analysis of the data (xPonent software 4.2, USA). The levels of cytokine/chemokine are normalized to the live cell counts (1×10^5 cells/mL) and presented as concentrations per mL (pg/mL or ng/mL).

[1] = PBMC + LPS(5 ug/ml) + YY101 0.001 uM
[2] = PBMC + LPS(5 ug/ml) + YY101 0.001 uM, mean
[3] = PBMC + LPS(5 ug/ml) + YY101 0.01 uM
[4] = PBMC + LPS(5 ug/ml) + YY101 0.01 uM, mean
[5] = PBMC + LPS(5 ug/ml) + YY101 0.1 uM
[6] = PBMC + LPS(5 ug/ml) + YY101 0.1 uM, mean
[7] = PBMC + LPS(5 ug/ml) + YY101 1 uM
[8] = PBMC + LPS(5 ug/ml) + YY101 1 uM, mean
[9] = PBMC + LPS(5 ug/ml) + YY101 10 uM
[10] = PBMC + LPS(5 ug/ml) + YY101 10 uM, mean
[11] = PBMC + LPS(5 ug/ml) + YY101 100 uM
[12] = PBMC + LPS(5 ug/ml) + YY101 100 uM, mean
[13] = PBMC + YY101 0.01 uM (second group so labelled), no LPS
[14] = PBMC + YY101 0.01 uM (second group so labelled), no LPS, mean
[15] = PBMC + YY101 0.01 uM, no LPS, mean
[16] = PBMC + YY101 1 uM, no LPS, mean
[17] = PBMC + YY101 10 uM, no LPS, mean
[18] = PBMC + YY101 100 uM, no LPS, mean

CC(C)C[C@H](NC(=O)CNC(=O)[C@H](CC(=O)O)NC(=O)[C@H](CCC(N)=O)NC(=O)CNC(=O)[C@@H]1C[C@@H](O)CN1)C(=O)N[C@@H](C)C(=O)NCC(=O)N1CCC[C@H]1C(=O)N[C@@H](CCCCN)C(=O)O [YY-101] (H-[Hyp]GQDGLAGPK-OH; N-terminus and C-terminus assumed)
Concentration [1]: 426.2 pg/mL and 461.9 pg/mL and 419.9 pg/mL
conc/live cell [1]: 74.8 pg/10^5 and 65.1 pg/10^5 and 63.6 pg/10^5
Concentration [2]: 436.0 pg/mL
conc/live cell [2]: 67.8 pg/10^5
Concentration [3]: 506.1 pg/mL and 475.9 pg/mL and 484.7 pg/mL
conc/live cell [3]: 79.1 pg/10^5 and 79.3 pg/10^5 and 79.5 pg/10^5
Concentration [4]: 488.9 pg/mL
conc/live cell [4]: 79.3 pg/10^5
Concentration [5]: 491.3 pg/mL and 481.8 pg/mL and 482.5 pg/mL
conc/live cell [5]: 79.2 pg/10^5 and 92.6 pg/10^5 and 77.8 pg/10^5
Concentration [6]: 485.2 pg/mL
conc/live cell [6]: 83.2 pg/10^5
Concentration [7]: 451.2 pg/mL and 427.3 pg/mL and 434.3 pg/mL
conc/live cell [7]: 71.6 pg/10^5 and 60.2 pg/10^5 and 70.0 pg/10^5
Concentration [8]: 437.6 pg/mL
conc/live cell [8]: 67.3 pg/10^5
Concentration [9]: 473.3 pg/mL and 470.7 pg/mL and 483.6 pg/mL
conc/live cell [9]: 78.9 pg/10^5 and 73.6 pg/10^5 and 63.6 pg/10^5
Concentration [10]: 475.9 pg/mL
conc/live cell [10]: 72.0 pg/10^5
Concentration [11]: 656.9 pg/mL and 616.5 pg/mL and 614.2 pg/mL
conc/live cell [11]: 104.3 pg/10^5 and 99.4 pg/10^5 and 122.8 pg/10^5
Concentration [12]: 629.2 pg/mL
conc/live cell [12]: 108.8 pg/10^5
Concentration [13]: 1.0 pg/mL and 5.3 pg/mL
conc/live cell [13]: 0.2 pg/10^5 and 0.9 pg/10^5
Concentration [14]: 3.1 pg/mL
conc/live cell [14]: 0.6 pg/10^5
Concentration (PBMC + YY101 0.01 uM, no LPS): 1.0 pg/mL and 5.3 pg/mL
conc/live cell (PBMC + YY101 0.01 uM, no LPS): 0.2 pg/10^5 and 1.1 pg/10^5
Concentration [15]: 3.1 pg/mL
conc/live cell [15]: 0.6 pg/10^5
Concentration (PBMC + YY101 1 uM, no LPS): 5.3 pg/mL
conc/live cell (PBMC + YY101 1 uM, no LPS): 1.0 pg/10^5
Concentration [16]: 5.3 pg/mL
conc/live cell [16]: 1.0 pg/10^5
Concentration (PBMC + YY101 10 uM, no LPS): 31.7 pg/mL and 7.1 pg/mL
conc/live cell (PBMC + YY101 10 uM, no LPS): 5.0 pg/10^5 and 1.2 pg/10^5
Concentration [17]: 19.4 pg/mL
conc/live cell [17]: 3.1 pg/10^5
Concentration (PBMC + YY101 100 uM, no LPS): 10.4 pg/mL and 5.3 pg/mL
conc/live cell (PBMC + YY101 100 uM, no LPS): 1.6 pg/10^5 and 0.8 pg/10^5
Concentration [18]: 7.9 pg/mL
conc/live cell [18]: 1.2 pg/10^5
LPS-induced IL-1a levels (in words) (at 100.iM, LPS 5 ug/mL 24 hrs): further increased
